Assays:
TLR7 = target: T1, TLR7 (Homo sapiens, UniProt Q9NYK1); assay: TLR7 human PBMC cell-based assay (antagonist, GS-986 stimulated cytokine release); conditions: human PBMCs; TLR7 agonist GS-986 400 nM, 6 hours; cytokines (IL-6 and IFNα) in supernatant; read-out: TLR-7 EC50
T1 construct: Human peripheral blood mononuclear cells (PBMCs) consist of lymphocytes, monocytes and dendritic cells that express TLR7, TLR8 and TLR9; endogenous in cells; host or cells: cryopreserved human PBMCs from healthy donors
T1 sequence (Q9NYK1 27-1049): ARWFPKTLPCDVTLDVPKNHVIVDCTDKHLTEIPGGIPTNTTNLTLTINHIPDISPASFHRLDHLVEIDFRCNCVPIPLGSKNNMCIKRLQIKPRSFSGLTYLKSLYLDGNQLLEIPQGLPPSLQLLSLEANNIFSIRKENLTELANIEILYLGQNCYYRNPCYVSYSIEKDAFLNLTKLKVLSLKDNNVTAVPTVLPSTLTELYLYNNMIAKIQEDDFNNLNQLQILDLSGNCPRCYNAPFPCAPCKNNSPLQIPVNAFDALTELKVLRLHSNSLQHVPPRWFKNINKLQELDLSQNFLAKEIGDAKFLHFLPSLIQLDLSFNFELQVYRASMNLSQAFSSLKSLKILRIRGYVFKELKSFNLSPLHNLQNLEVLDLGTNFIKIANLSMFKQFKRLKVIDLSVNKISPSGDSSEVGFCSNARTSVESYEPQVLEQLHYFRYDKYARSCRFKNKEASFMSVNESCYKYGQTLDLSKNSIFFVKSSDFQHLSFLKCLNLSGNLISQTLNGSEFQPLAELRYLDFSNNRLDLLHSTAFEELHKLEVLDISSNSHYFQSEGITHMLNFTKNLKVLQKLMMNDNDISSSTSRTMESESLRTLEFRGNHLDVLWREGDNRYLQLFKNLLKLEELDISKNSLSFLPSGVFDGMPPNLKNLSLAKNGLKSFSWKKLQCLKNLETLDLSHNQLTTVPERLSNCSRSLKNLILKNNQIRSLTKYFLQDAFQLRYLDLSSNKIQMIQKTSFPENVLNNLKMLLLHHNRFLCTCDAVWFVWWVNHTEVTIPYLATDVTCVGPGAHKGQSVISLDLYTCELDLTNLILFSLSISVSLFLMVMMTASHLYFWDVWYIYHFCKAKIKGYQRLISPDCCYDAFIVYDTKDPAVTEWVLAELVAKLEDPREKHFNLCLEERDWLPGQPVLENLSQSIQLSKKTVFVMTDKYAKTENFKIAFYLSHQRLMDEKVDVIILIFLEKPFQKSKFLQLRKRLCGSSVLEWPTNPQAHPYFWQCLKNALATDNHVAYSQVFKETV
Source text: (§1) Human peripheral blood mononuclear cells (PBMCs) consist of lymphocytes, monocytes and dendritic cells that express TLR7, TLR8 and TLR9. These cells respond to TLR7, TLR8 and TLR9 ligand stimulation and produce cytokines and chemokines in vitro and in vivo. Human PBMCs are therefore suitable to be used in a cell-based assay to assess the in vitro potency of a TLR 7, 8, and/or 9 antagonist. The result is expected to be more translatable to the pharmacodynamics response in vivo than cell line-based assays.
Cryopreserved human PBMCs from healthy donors were thawed and resuspended in RPMI-1640 media with L-glutamine (Corning) supplemented with 10% Fetal Bovine Serum (Hyclone) and 1× Penicillin-Streptomycin (Corning). After counting, the cell density was adjusted to 2 million cells/ml and incubated for 1 hour at 37° C., 5% CO2 for recovery. Following the recovery, the cells were plated by adding 50 μl per well (100,000 cells) to 384-well cell culture plates (Greiner) containing 250 nl of test antagonists in 100% DMSO per well, in a 10 points dose response in quadruplicates. PBMCs were incubated in the presence of test antagonists for one hour at 37° C., 5% CO2 before being stimulated with a TLR7 or TLR9agonist. GS-986 (Gilead Sciences) was used as the TLR7 agonist at a final concentration of 400 nM. ODN-2216 (InvivoGen) was used as the TLR9 agonist at a final concentration of 3 μM. PBMCs were incubated in the presence of the test antagonist and the TLR7 (or TLR9) agonist for an additional 6 hours at 37° C., 5% CO2. At the end of the incubation, the cell culture plates were centrifuged at 500 g for 5 min, and the cell culture supernatant was collected. The level of cytokines (IL-6 and IFNα) in the supernatant was measured by electrochemiluminescence immunoassays (Mesoscale Discovery) following manufacturer's recommended protocols. The level of cytokine measured was plotted against the test antagonist concentration and fitted to a sigmoidal function to determine the EC50, which are shown below in Table 11.

TLR8 = target: T2, TLR8 (Homo sapiens, UniProt Q9NR97); assay: TLR8 human PBMC cell-based assay (antagonist, Compound A stimulated cytokine release); conditions: human PBMCs; TLR8 agonist Compound A 800 nM, 6 hours; cytokines (TNFa and IL 12p40) in supernatant; read-out: TLR-8 EC50
T2 construct: Human peripheral blood mononuclear cells (PBMCs) consist of lymphocytes, monocytes and dendritic cells that express TLR7, TLR8 and TLR9; endogenous in cells; host or cells: cryopreserved human PBMCs from healthy donors
T2 sequence (Q9NR97 27-1041): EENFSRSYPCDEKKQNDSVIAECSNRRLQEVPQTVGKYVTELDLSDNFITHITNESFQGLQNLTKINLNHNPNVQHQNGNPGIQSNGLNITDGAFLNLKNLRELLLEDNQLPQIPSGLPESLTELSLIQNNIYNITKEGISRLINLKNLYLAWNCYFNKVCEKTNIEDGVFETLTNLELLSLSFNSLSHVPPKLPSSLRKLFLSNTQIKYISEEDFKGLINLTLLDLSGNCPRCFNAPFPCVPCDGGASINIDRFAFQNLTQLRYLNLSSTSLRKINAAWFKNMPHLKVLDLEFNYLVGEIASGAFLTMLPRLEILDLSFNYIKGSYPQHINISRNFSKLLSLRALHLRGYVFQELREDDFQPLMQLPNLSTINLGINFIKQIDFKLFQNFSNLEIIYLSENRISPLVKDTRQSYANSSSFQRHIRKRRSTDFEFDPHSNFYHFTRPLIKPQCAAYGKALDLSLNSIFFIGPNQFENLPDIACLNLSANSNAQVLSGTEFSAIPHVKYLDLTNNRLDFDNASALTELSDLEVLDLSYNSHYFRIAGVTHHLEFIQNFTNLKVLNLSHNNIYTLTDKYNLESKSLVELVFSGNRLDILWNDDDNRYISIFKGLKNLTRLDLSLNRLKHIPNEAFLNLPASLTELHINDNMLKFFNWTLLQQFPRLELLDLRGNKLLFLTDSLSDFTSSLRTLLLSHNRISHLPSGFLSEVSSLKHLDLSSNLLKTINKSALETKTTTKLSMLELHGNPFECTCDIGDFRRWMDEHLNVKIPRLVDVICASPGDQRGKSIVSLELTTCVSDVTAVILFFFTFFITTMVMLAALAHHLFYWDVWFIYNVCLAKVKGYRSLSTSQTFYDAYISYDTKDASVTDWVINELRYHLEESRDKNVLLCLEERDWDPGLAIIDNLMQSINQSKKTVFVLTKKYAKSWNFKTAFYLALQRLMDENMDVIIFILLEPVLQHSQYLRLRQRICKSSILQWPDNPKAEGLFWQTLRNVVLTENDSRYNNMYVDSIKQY
Source text: as §1
Cryopreserved human PBMCs from healthy donors were thawed and resuspended in RPMI-1640 media with L-glutamine (Corning) supplemented with 10% Fetal Bovine Serum (Hyclone) and 1X Penicillin-Streptomycin (Corning). After counting, the cell density was adjusted to 2 million cells/ml and incubated for 1 hour at 37° C., 5% CO2 for recovery. Following the recovery, the cells were plated by adding 50 μl per well (100,000 cells) to 384-well cell culture plates (Greiner) containing 250 nl of test antagonists in 100% DMSO per well, in a 10 points dose response in quadruplicates. PBMCs were incubated in the presence of antagonists for one hour at 37° C., 5% CO2 before being stimulated with TLR8 agonist. Compound A (Gilead Sciences, U.S. Pat. No. 10,285,990) was used as the TLR8 agonist at a final concentration of 800 nM. PBMCs were incubated in the presence of antagonist and the TLR8 agonist for an additional 6 hours at 37° C., 5% CO2. At the end of the incubation, the cell culture plates were centrifuged at 500 g for 5 min, and the cell culture supernatant was collected. The level of cytokines (TNFa and IL 12p40) in the supernatant was measured by electrochemiluminescence immunoassays (Mesoscale Discovery) following manufacturer's recommended protocols. The level of cytokine measured was plotted against the antagonist concentration and fitted to a sigmoidal function to determine the EC50, which are shown below in Table 11.

EC50 (TLR7) | EC50 (TLR8) | SMILES
0.6 nM | 11.2 nM | Cc1cc(-c2[nH]c3cc(C(=O)N(C)[C@H]4CCNC4)sc3c2C(C)C)cn2ncnc12 [Example 39]
10.5 nM | 10.5 nM | Cc1cc(-c2[nH]c3cc(C(=O)N4C[C@@H]5[C@@H](N)[C@@H]5C4)sc3c2C(C)C)cn2ncnc12 [Example 74]
0.2 nM | 1 nM | Cc1cc(-c2[nH]c3cc(C4CCC5(CC4)CN(CC(N)=O)C5)sc3c2C(C)C)cn2ncnc12 [Example 177]
0.8 nM | 0.2 nM | Cc1cc(-c2[nH]c3cc(-c4cnc5c(c4)CNCC5)sc3c2C(C)C)cn2ncnc12 [Example 213]
0.4 nM | 9.6 nM | Cc1cc(-c2[nH]c3cc(C4CCC(N5CCC(O)C5)CC4)sc3c2C(C)C)cn2ncnc12 (centres unmarked) [Example 257]
0.7 nM | 29.8 nM | Cc1cc(-c2[nH]c3cc(C(=O)N(C)CCN(C)C)sc3c2C(C)C)cn2ncnc12 [Example 136]
2.1 nM | 1.2 nM | Cc1c(-c2[nH]c3cc(C(=O)N4CCNCC4)sc3c2C(C)C)cn2ncnc2c1C [Example 32]
> 1000 nM | 172 nM | Cc1c(-c2[nH]c3cc(C4CCN(CC(N)=O)CC4)sc3c2C(C)C)ccc2nn(C)c(=O)n12 [Example 286]
1.3 nM | 0.5 nM | Cc1cc(-c2[nH]c3cc(C(=O)N4C[C@@H](C)NC[C@@H]4C)sc3c2C(C)C)cn2ncnc12 [Example 123]
0.6 nM | 11.2 nM | Cc1cc(-c2[nH]c3cc(C4CCC5(CNC5)C4)sc3c2C(C)C)cn2ncnc12 (centres unmarked) [Example 162]
592 nM | 588 nM | Cc1cc(-c2[nH]c3cc(C(=O)NC4CCNCC4)sc3c2C(C)C)cc(C)n1 [Example 4]
0.4 nM | 1.4 nM | COc1cc(-c2[nH]c3cc(-c4cnn(C5CCNCC5)c4)sc3c2C(C)C)cn2ncnc12 [Example 233]
90.9 nM | 58.9 nM | Cc1cc(-c2[nH]c3cc(C(=O)N4CCN[C@H](C(F)(F)F)C4)sc3c2C(C)C)cn2ncnc12 [Example 152]
0.1 nM | 8.8 nM | Cc1cc(-c2[nH]c3cc(C4CC5CCC(C4)N5)sc3c2C(C)C)cn2ncnc12 (centres unmarked) [Example 156]
333 nM | 33.1 nM | CCc1c(-c2cc(C)c3ncnn3c2)[nH]c2cc(-c3nc4ccc(N5CCNCC5)nc4[nH]3)sc12 [Example 244, 6-ethyl-5-(8-methyl-[1,2,4]triazolo[1,5-a]pyridin-6-yl)-2-(5-(piperazin-1-yl)-311-imidazo[4,5-b]pyridin-2-yl)-4H-thieno[3,2-b]pyrrole]
34.8 nM | 136 nM | Cc1cc(-c2[nH]c3cc(C(=O)N(C)C4CCC(N5CCC(F)(F)C5)CC4)sc3c2C(C)C)cn2ncnc12 (centres unmarked) [Example 254]
10.3 nM | – | Cc1cc(-c2[nH]c3cc(C(=O)N(C)C4CCNCC4(C)C)sc3c2C(C)C)cc(C)n1 (centres unmarked) [Example 37]
0.2 nM | 23.1 nM | Cc1cc(-c2[nH]c3cc(C(=O)N(C)C4CCNCC4(C)C)sc3c2C(C)C)cn2ncnc12 (centres unmarked) [Example 92]
3.7 nM | 7 nM | Cc1cc(-c2[nH]c3cc(-c4nc(N5CCNCC5)no4)sc3c2C(C)C)cc(C)n1 [Example 54, 5-[5-(2,6-dimethyl-4-pyridyl)-6-isopropyl-4H-thieno[3,2-b]pyrrol-2-yl]-3-piperazin-1-yl-1,2,4-oxadiazole]
504 nM | 408 nM | Cc1cc(-c2[nH]c3cc(C(=O)N4CC5(CNC5)C4)sc3c2C(C)C)cc(C)n1 [Example 24]
0.7 nM | 15.6 nM | CCc1c(-c2cc(C)c3ncnn3c2)[nH]c2cc(C(=O)N(C)C3CCNCC3)sc12 [Example 63]
240 nM | – | Cc1cc(-c2[nH]c3cc(C(=O)N4CC[C@H](N)C4)sc3c2C(C)C)cn(C)c1=O [Example 35]
682 nM | – | Cc1cc(-c2[nH]c3cc(C(=O)N4CCN5CCOC[C@H]5C4)sc3c2C(C)C)cc(C)n1 [Example 41]
– | 10.5 nM | Cc1cc(-c2[nH]c3cc(C4CCC5(CCNC5)C4)sc3c2C(C)C)cn2ncnc12 (centres unmarked) [Example 278]
11.1 nM | – | Cc1cc(-c2[nH]c3cc(C(=O)N4CCC[C@H](N)[C@@H]4C)sc3c2C(C)C)cc(C)n1 [Example 33]
103 nM | – | Cc1cc(-c2[nH]c3cc(C(=O)N4CC[C@H](F)[C@@H](N)C4)sc3c2C(C)C)cc(C)n1 [Example 26]
489 nM | – | Cc1cc(-c2[nH]c3cc(C(=O)N4CCN5CCOC[C@@H]5C4)sc3c2C(C)C)cc(C)n1 [Example 42]
